Assay [1] relates to ErbB3 phosphorylation in AdrR cells. In words: inhibitor dose response of ligand-induced ErbB3 phosphorylation (ELISA). Particulars: for IC50: Homo sapiens, 10 min. In kind it is cell-based, human. How it is done: Phosphorylation of ErbB3 is measured by ELISA (R&D Systems, DYC1769-5, per manufacturers protocol) and IC50 values are determined using Prism (GraphPad Software Inc.).
(In an ELISA, binding on a coated surface is turned into a signal by an enzyme label.)

Assay [2] has as its system SKOV3 subcutaneous xenograft tumors. In words: PI3K mutant SKOV3 subcutaneous xenograft tumors. Format: in vivo, mouse. As to conditions: Ab #6 300 μg every three days; cisplatin 1.5 mg/kg; dosing after 30 day lag phase. From the text: SKOV3 (SKOV-3) is an ovarian cancer cell line that comprises a mutation that upregulates PI3K expression.
Assay [3] concerns ACHN (a renal tumor cell line) xenograft tumors. As to the kind of experiment: ACHN xenograft combination therapy. In kind it is in vivo, mouse. Particulars: Ab #6 300 μg IP every three days; erlotinib 25 mg/kg orally once daily. The protocol:
In a first experiment, mice bearing ACHN (a renal tumor cell line) xenograft tumors are prepared by establishing tumors subcutaneously in the flanks of nude mice (Charles River Laboratories).

Assay [4] relates to A549 subcutaneous xenograft tumors. In words: KRAS mutant A549 subcutaneous xenograft tumors. Format: in vivo, mouse. As to conditions: Ab #6 300 μg every three days; erlotinib 25 mg/kg every day; taxol 20 mg/kg every 7 days.
Assay [5] concerns DU145 (a prostate tumor cell line) xenograft tumors. In words: DU145 xenograft combination therapy. Format: in vivo, mouse. As to conditions: Ab #6 300 μg IP every three days; taxol 20 mg/kg IP once per week. The protocol: In a second experiment, mice bearing DU145 (a prostate tumor cell line) xenograft tumors are prepared by establishing tumors subcutaneously in the flanks of nude mice (Charles River Laboratories). […] Again, tumor size is measured twice a week and measurements are used to calculate tumor volume.

In another assay the target is ErbB3 (Homo sapiens, UniProt P21860). In words: paratope mapping: binding of Ab #6 scFv mutants to ErbB3. Particulars: scFv format; compared with binding to Protein A. How it is done:
FIG. 36 presents data from paratope mapping experiments.
This format is used to investigate the effect on ErbB3 binding of alanine (and in some cases phenylalanine) substitution mutations in the CDR loops.
All of the mutations are made using standard recombinant DNA techniques and binding of the mutants to ErbB3 is tested using standard screening techniques known in the art.

Assay [6] addresses T1, heregulin binding to ErbB3 on MALME-3M cells (Homo sapiens, UniProt P21860).
T1 construct: ErbB3 expressed on MALME-3M melanoma cells; host or cells: MALME-3M melanoma cells
As to the kind of experiment: biotinylated heregulin binding to MALME3M cells by FACS. In kind it is cell-based. Particulars: 5 μM antibody, 20 nM heregulin EGF. The protocol:
After 30 minutes, 50 μl of 40 nM biotinylated heregulin EGF is added to the cells and incubated for another 10 minutes on ice. This yields a final concentration of 5 μM antibody and 20 nM heregulin EGF. Cells are then washed twice with 500 μl BD stain buffer and incubated with 100 μl of a 1:200 dilution of streptavidin-PE (PE=phycoerythrin) (Invitrogen) in BD stain buffer for 45 minutes. Finally, cells are washed twice, resuspended in 300 μl of BD stain buffer and analyzed in a FACSCALIBUR flow cytometer. As a positive control, 1×10^5 MALME3M cells are incubated with 20 nM heregulin EGF for 10 minutes on ice, washed twice and incubated with a 1:200 dilution of streptavidin-PE for 45 minutes. In order to assess background staining from the streptavidin-PE conjugate, 1×10^5 MALME3M cells are incubated with 100 μl of a 1:200 dilution of streptavidin-PE only for 45 minutes.
(In general: In flow cytometry, cells or beads pass a laser one at a time.)

Residue numbers refer to the chain shown, from its start. Like-named read-outs stand apart in the source and are kept apart here.

Usually IC50 stands for the concentration needed to halve the response being measured. Take `CS(=O)(=O)CCNCc1ccc(-c2ccc3ncnc(Nc4ccc(OCc5cccc(F)c5)c(Cl)c4)c3c2)o1` [Lapatinib]: the IC50 in assay [1] (25 nM BTC, read-out: IC50, BTC-induced ErbB3 phosphorylation) worked out at 360 nM; in assay [1] (25 nM HRG, read-out: IC50, HRG-induced ErbB3 phosphorylation) it was 150 nM.
For the molecule `N.N.[Cl][Pt][Cl]` [cisplatin], in assay [2], the tumor growth inhibition entry is given as “able to inhibit the growth of the SKOV3 xenografts”.
As for `C#Cc1cccc(Nc2ncnc3cc(OCCOC)c(OCCOC)cc23)c1` [erlotinib, reference compound], in assay [3], the “inhibition of tumor growth (tumor volume)” value is given as “inhibit tumor growth”. In addition, the tumor growth inhibition result in assay [4] is on record as “insensitive”.
`CC(=O)O[C@H]1C(=O)[C@@]2(C)[C@H]([C@H](OC(=O)c3ccccc3)[C@]3(O)C[C@H](OC(=O)[C@H](O)[C@@H](NC(=O)c4ccccc4)c4ccccc4)C(C)=C1C3(C)C)[C@]1(OC(C)=O)CO[C@@H]1C[C@@H]2O` [taxol, reference compound]: the “inhibition of tumor growth (tumor volume)” value in assay [5] was “inhibited tumor growth”. For the same molecule, the tumor growth inhibition entry in assay [4] is “insensitive”.
As to Pertuzumab, in assay [1] (25 nM BTC, 10 minutes), the “IC50, BTC-induced ErbB3 phosphorylation” value is on record as “did not inhibit”.

B1: M1: Ab #6 scFv mutant, H1 loop, Thr28Ala (antibody, chains of the INN, looked up, variant H:T28A, V domains shown)
VH: EVQLLESGGGLVQPGGSLRLSCAASGFAFSHYVMAWVRQAPGKGLEWVSSISSSGGWTLYADSVKGRFTISRDNSKNTLYLQMNSLRAEDTAVYYCTRGLKMATIFDYWGQGTLVTVSS
VL: QSALTQPASVSGSPGQSITISCTGTSSDVGSYNVVSWYQQHPGKAPKLIIYEVSQRPSGVSNRFSGSKSGNTASLTISGLQTEDEADYYCCSYAGSSIFVIFGGGTKVTVL
modifications: scFv
As to B1, the “Effect on ErbB3 Binding of Ab #6 Mutations” value (shortened to “Effect on ErbB3 Binding”) with ErbB3 was “no effect on binding”.

B2: M4: Ab #6 scFv mutant, CDR H1, Tyr32Ala (antibody, chains of the INN, looked up, variant H:Y32A, V domains shown)
VH: B1 VH with A28T, Y32A
VL: B1 VL
modifications: scFv
On to B2, for which, in the assay with ErbB3, the “Effect on ErbB3 Binding” value is “large decrease in binding (based on the three groupings shown in FIG. 36)”.

B3: M3: Ab #6 scFv mutant, CDR H1, His31Ala (antibody, chains of the INN, looked up, variant H:H31A, V domains shown)
VH: B1 VH with A28T, H31A
VL: B1 VL
modifications: scFv
With B3, the “Effect on ErbB3 Binding” value in the assay with ErbB3 is reported as “no effect on binding”.

B4: M5: Ab #6 scFv mutant, CDR H1, Tyr32Phe (antibody, chains of the INN, looked up, variant H:Y32F, V domains shown)
VH: B1 VH with A28T, Y32F
VL: B1 VL
modifications: scFv
On to B4, for which, in the assay with ErbB3, the “Effect on ErbB3 Binding” value is listed as “no effect on binding”.

B5: Ab/Fab #3: a Fab version of Ab #3 (antibody, V domains shown)
VH: EVQLLESGGGLVQPGGSLRLSCAASGFTFSAYNMRWVRQAPGKGLEWVSVIYPSGGATRYADSVKGRFTISRDNSKNTLYLQMNSLRAEDTAVYYCARGYYYYGMDVWGQGTLVTVSS
VL: QSVLTQPPSASGTPGQRVTISCSGSDSNIGRNYIYWYQQFPGTAPKLLIYRNNQRPSGVPDRISGSKSGTSASLAISGLRSEDEAEYHCGTWDDSLSGPVFGGGTKLTVL
For the molecule B5, the “inhibition of heregulin binding to ErbB3” value in assay [6] was “able to inhibit heregulin binding to ErbB3”.

For the origin of these results see patent publication US8691225B2, “Antibodies against the ectodomain of ErbB3 and uses thereof” (Merrimack Pharmaceuticals, Inc., priority 2007, dated 2014).
